Key:
pancreatic lipase = target: T1, pancreatic lipase (Homo sapiens, UniProt P16233); assay: In vitro pancreatic lipase inhibition; type: biochemical; details: for IC50: concentration range 12–100 µg/mL
T1 sequence (P16233 17-465): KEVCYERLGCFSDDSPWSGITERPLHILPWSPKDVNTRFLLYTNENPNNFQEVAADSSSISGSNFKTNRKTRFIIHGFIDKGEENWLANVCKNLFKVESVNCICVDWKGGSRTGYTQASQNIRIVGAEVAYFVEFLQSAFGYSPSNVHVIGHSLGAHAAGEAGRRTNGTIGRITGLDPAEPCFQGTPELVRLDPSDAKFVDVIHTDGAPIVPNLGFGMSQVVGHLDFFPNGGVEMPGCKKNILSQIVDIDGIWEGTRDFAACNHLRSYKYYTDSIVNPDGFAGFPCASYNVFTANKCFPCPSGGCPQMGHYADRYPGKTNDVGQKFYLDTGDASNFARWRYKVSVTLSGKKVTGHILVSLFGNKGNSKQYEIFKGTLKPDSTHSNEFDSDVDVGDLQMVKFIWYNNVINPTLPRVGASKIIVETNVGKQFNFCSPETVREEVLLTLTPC
Description: The determination of the percentage inhibition of pancreatic lipase was calculated as prescribed by Hegazi et al., using the same formula for amylase.

DPPH antioxidant assay = assay: DPPH antioxidant assay
Description: The assay was carried out for AEEE and isolated phenolics according to Brand-Williams et al..

ORAC antioxidant assay = assay: ORAC antioxidant assay
Description: The antioxidant assay was applied to AEEE and the isolated phenolics.

Reducing power assay = assay: Reducing power assay
Description: In the reducing-power assay, the more antioxidant compounds convert the oxidated form of iron (Fe^+3) in ferric chloride to ferrous (Fe^+2), which leads to an increase in colored ferrous-TPTZ complexes.
The assay was carried out on AEEE and the isolated phenolics (DeGraft-Johnson et al., 2007).

α-amylase = target: T2, α-amylase (Homo sapiens, UniProt P04746); assay: In vitro α-amylase inhibition; type: biochemical; details: for IC50: concentration range 75–600 µg/mL
T2 construct: purchased Sigma-Aldrich (Merck, Darmstadt, Germany)
T2 sequence (P04746 16-511): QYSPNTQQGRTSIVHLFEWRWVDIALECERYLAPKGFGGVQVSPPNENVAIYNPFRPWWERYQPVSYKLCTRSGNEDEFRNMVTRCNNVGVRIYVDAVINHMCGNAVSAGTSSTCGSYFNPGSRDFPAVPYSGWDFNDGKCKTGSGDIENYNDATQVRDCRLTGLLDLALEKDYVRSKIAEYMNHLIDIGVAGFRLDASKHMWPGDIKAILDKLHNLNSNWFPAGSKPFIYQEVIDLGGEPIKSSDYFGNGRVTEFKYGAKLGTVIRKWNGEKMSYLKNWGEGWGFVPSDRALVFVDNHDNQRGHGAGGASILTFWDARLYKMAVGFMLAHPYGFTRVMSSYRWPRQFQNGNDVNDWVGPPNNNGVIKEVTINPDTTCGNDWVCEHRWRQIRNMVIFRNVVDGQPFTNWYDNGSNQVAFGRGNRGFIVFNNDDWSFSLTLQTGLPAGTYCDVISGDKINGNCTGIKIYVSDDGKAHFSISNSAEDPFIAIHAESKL
Description: The assay was implemented in accordance with. […] The percentage of inhibition can be estimated using the following Equation: 100−[{A sample/ Acontrol ×100]

β-glucosidase = assay: In vitro β-glucosidase inhibition; type: biochemical; details: for β-glucosidase IC50: concentration range 75–600 µg/mL
Description: The assay was performed in conformity with and used the same formula for amylase.

| Compound | inhibition at 100 µg/mL (pancreatic lipase) | DPPH IC50 (DPPH antioxidant assay) | ORAC IC50 (ORAC antioxidant assay) | Ferrous reducing assay IC50 (Reducing power assay) | Reducing power (Reducing power assay; compared with quercetin as standard) | inhibition at 300 µg/mL (α-amylase) | IC50 (α-amylase) | β-glucosidase % Inhibition (β-glucosidase; at 300 µg/mL) | β-glucosidase IC50 (β-glucosidase) | IC50 (pancreatic lipase) | β-glucosidase % Inhibition (β-glucosidase; at 600 µg/mL) |
| --- | --- | --- | --- | --- | --- | --- | --- | --- | --- | --- | --- |
| CCCCCCCCCCC[C@@H](C[C@@H]1OC(=O)[C@H]1CCCCCC)OC(=O)[C@H](CC(C)C)NC=O [Orlistat, reference compound] | 57 ± 4.5% | – | – | – | – | – | – | – | – | – | – |
| O=C(OC[C@H]1O[C@@H](Oc2c(-c3cc(O)c(O)c(O)c3)oc3cc(O[C@@H]4O[C@H](CO)[C@@H](O)[C@H](O)[C@H]4O)cc(O)c3c2=O)[C@H](O)[C@@H](O)[C@@H]1O)c1cc(O)c(O)c(O)c1 [Compound 1, myricetin 3-O-β-^4C1-(6′′-O-galloyl glucopyranoside)-7-O-β-^4C1-glucopyranoside] | 87 ± 2.38% | 2.37 ± 0.56 µg/mL | 2.01 ± 0.23 µg/mL | 158.13 ± 2.82 µg/mL | comparable to that of standard quercetin | 91.4 ± 2.45% | 198 µM | 92.70 ± 1.42 % | 72.77 ± 2.67 µg/mL | 40.3 µM | – |
| C[C@@H]1O[C@@H](OC[C@H]2O[C@@H](Oc3c(-c4ccc(O)cc4)oc4cc(O)cc(O)c4c3=O)[C@H](O)[C@@H](O)[C@@H]2O)[C@H](O)[C@H](O)[C@H]1O [Compound 2, kaempfeol 3-O-rutinoside] | 35.8 ± 3.84% | > 100 ± 13.67 µg/mL | > 100 ± 10.17 µg/mL | – | – | 80.4 ± 3.81% | 348 µM | – | – | 228 µM | – |
| O=C1O[C@H]([C@@H](O)CO)C(O)=C1O [Vitamin C, reference compound] | – | 1.83 ± 1.41 µg/mL | – | – | – | – | – | – | – | – | – |
| Cc1c(C)c2c(c(C)c1O)CCC(C)(C(=O)O)O2 (stereo not drawn) [Trolox, reference compound] | – | – | 28.0 ± 14.31 µg/mL | – | – | – | – | – | – | – | – |
| O=C(O[C@@H]1[C@@H](OC(=O)c2cc(O)c(O)c(O)c2)[C@H](O)O[C@@H]2COC(=O)c3cc(O)c(O)c(O)c3-c3c(cc(O)c(O)c3O)C(=O)O[C@@H]12)c1cc(O)c(O)c(O)c1 [Compound 4, tellimagranidine-I] | 19.5 ± 4.36% | 4.64 ± 0.39 µg/mL | 4.14 ± 1.27 µg/mL | – | – | 78.9 ± 4.13% | 276 µM | 58.44 ± 3.61 % | 115.21 ± 4.90 µg/mL | 343 µM | – |
| O=C(O[C@H]1[C@H](O)[C@@H](CO)OC(O)[C@@H]1OC(=O)c1cc(O)c(O)c(O)c1)c1cc(O)c(O)c(O)c1 (stereo partly drawn) [Compound 5, 2,3-α, β-digalloy glucose] | 18.7 ± 3.1% | 4.81 ± 0.73 µg/mL | 4.43 ± 0.68 µg/mL | – | – | 78 ± 1.15% | 448 µM | 68.43 ± 2.30 % | 100.23 ± 3.80 µg/mL | 549 µM | – |
| C[C@H]1O[C@H](O[C@H]2[C@H](O)[C@@H](O)[C@@H](O[C@H]3[C@H](O)[C@@H](O)C(O)O[C@@H]3CO)O[C@@H]2CO)[C@H](O)[C@@H](O)[C@@H]1N[C@H]1C=C(CO)[C@@H](O)[C@H](O)[C@H]1O (stereo partly drawn) [Acarbose, reference compound] | – | – | – | – | – | – | – | – | 110.6 ± 3.20 µg/mL | – | 95.2 ± 2.30% |
| C[C@@H]1O[C@@H](OC[C@H]2O[C@@H](Oc3c(-c4ccc(O)c(O)c4)oc4cc(O)cc(O)c4c3=O)[C@H](O)[C@@H](O)[C@@H]2O)[C@H](O)[C@H](O)[C@H]1O [Compound 3, quercetin 3-O-rutinoside] | 82.2 ± 2.53% | 8.81 ± 1.05 µg/mL | 8.02 ± 0.85 µg/mL | – | – | 72.1 ± 3.49% | 366 µM | 66 ± 3.47 % | 104 ± 3.80 µg/mL | 66.2 µM | – |
